Reference: ChEMBL document CHEMBL3137667, “[Drug-induced liver injury; fourteenth updated edition of the bibliographic database of liver injuries and related drugs]” (Gastroenterol Clin Biol, 2004)

Tests used:
[1] = human
[2] = human; remark: listed apart in the source
[3] = human, serum, 4383 h
[4] = human; remark: listed apart in the source
[5] = Highest frequency of moderate liver toxicity observed during clinical trials, expressed as a percentage. [column '% BIOL' in source]; settings: human
[6] = human; remark: listed apart in the source
[7] = human; remark: listed apart in the source
[8] = human; remark: listed apart in the source
[9] = Highest frequency of acute liver toxicity observed during clinical trials, expressed as a percentage. [column '% AIGUE' in source]; settings: human
[10] = human; remark: listed apart in the source
[11] = human, serum
[12] = human, serum; remark: listed apart in the source
[13] = human; remark: listed apart in the source
[14] = human; remark: listed apart in the source
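Throughout, for Hepatotoxicity (association with vascular disease): count of indexed literature references reporting vascular liver injury in humans, e.g. peliosis hepatitis, hepatic veno-occlusive disease or Budd-Chiari syndrome.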
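Throughout, for Hepatotoxicity (benign tumour): value is a count of indexed literature references citing a benign tumour confirmed by histopathology.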
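Throughout, for Hepatotoxicity (choleostasis): human cholestatic liver injury, shown by histopathology or by peak ALT or AST elevation over alkaline phosphatase ratio below 2, value counts indexed literature reports.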
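Throughout, for Hepatotoxicity (chronic liver disease): chronic liver injury confirmed by histopathology or persistently raised serum aminotransferase activity beyond 6 months, value given as the count of indexed literature references.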
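Throughout, for Hepatotoxicity (cirrhosis): value is a count of indexed literature references reporting cirrhosis confirmed by histopathology.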
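Throughout, for Hepatotoxicity (cytolytic): human cytolytic liver injury, shown by histopathology or by a ratio above 5 of peak ALT or AST elevation to alkaline phosphatase elevation, value counts indexed references.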
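Throughout, for Hepatotoxicity (granulomatous hepatitis): value is a count of indexed literature references reporting granulomatous liver disease confirmed by histopathology.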
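Throughout, for Hepatotoxicity (malignant tumour): malignant tumour confirmed by histopathology, value gives the count of indexed literature references reporting it.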
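Throughout, for Hepatotoxicity (severe hepatitis): human clinical data: severe hepatitis, meaning potentially life-threatening liver failure or clinically observed cases, the value counts how many indexed literature references report it.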
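Throughout, for Hepatotoxicity (steatosis): steatosis confirmed by histopathology, value is the count of indexed references.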

Compound	Hepatotoxicity (association with vascular disease) [1]	Hepatotoxicity (steatosis) [2]	Hepatotoxicity (chronic liver disease) [3]	Hepatotoxicity (cirrhosis) [4]	Hepatotoxicity (moderate) [5]	Hepatotoxicity (severe hepatitis) [6]	Hepatotoxicity (granulomatous hepatitis) [7]	Hepatotoxicity (cytolytic) [8]	Hepatotoxicity (acute) [9]	Hepatotoxicity (benign tumour) [10]	Hepatotoxicity (moderate) [11]	Hepatotoxicity (acute) [12]	Hepatotoxicity (malignant tumour) [13]	Hepatotoxicity (choleostasis) [14]
Cc1nc(C)c2c(n1)N(Cc1ccc(-c3ccccc3-c3nnn[nH]3)cc1)C(=O)CC2 [TASOSARTAN]	0	0	0	0	1.9%	0	0	0	0%	0	2	0	0	0
CC(C)/N=C/Nc1ccc(-c2c[nH]cn2)cc1 [MIFENTIDINE]	0	0	0	0	3.3%	0	0	0	0%	0	1	0	0	0
C[C@@](Cc1ccc(O)c(O)c1)(NN)C(=O)O.O [CARBIDOPA]	0	1	0	0	0%	0	0	0	0%	0	0	1	0	1
Nc1nc(/C(=C/CC(=O)O)C(=O)N[C@@H]2C(=O)N3C(C(=O)O)=CCS[C@H]23)cs1 [CEFTIBUTEN]	0	0	0	0	14.3%	0	0	0	0%	0	15	0	0	0
O=C1CC2(CCCC2)CC(=O)N1CCCCN1CCN(c2nsc3ccccc23)CC1 [TIOSPIRONE]	0	0	0	0	7.1%	0	0	0	0%	0	1	0	0	0
CCOC(=O)[C@H](CCc1ccccc1)N[C@@H](C)C(=O)N1Cc2ccccc2C[C@H]1C(=O)O	0	0	0	0	10%	0	0	0	0%	0	3	1	0	0
